The EC50 is the concentration at which the effect is half-maximal.

The subject of assay [1] is apoptotic HeLa cells. As to conditions: 500 nM, FACS. The method, then:
Detection of binding to apoptotic HeLa cells was performed according to the following procedure: Cells were plated on tissue culture plates at a density of 5×10^6 cells/10 cm dish, and grown in their normal medium at 37° C. for 18 hr. The medium was replaced with a medium containing 2% FCS and 500 μM of dopamine. Eighteen hours later, floating cells that were identified as advanced apoptotic cells were collected and transferred to a 50 ml tube. To evaluate the level of apoptosis in the cultures, aliquots of 10^5 cells from the cultures were plated on 48 wells plate and stained with Hoechst 33342 dye (Molecular Probes) at a concentration of 1 mg/ml for 20 min (as described above). Non-treated cells served as control. For collecting the non-treated cells, the medium of the culture was aspirated and discarded, the cells were rinsed with growing medium and 2 ml of medium were added to the culture dish. The cells were detached from the culture dish using a cell scraper and separated to single cells by passage through a syringe with a 18G needle.
The reactions were incubated at room temperature for 40 minutes and then 400 μl of TBS was added and cells were collected by centrifugation at 3000×g for 3 minutes. Cells were washed in 1 ml of TBS and centrifuged as before and detecting of the bound compound was performed using 100 μl of TBS containing streptavidin conjugated to fluorescein (FITC) (016-090-084 from Jackson ImmunoResearch lab. Inc.). Incubation was for 15 minutes at room temperature in the dark. Thereafter, 400 μl of TBS was added and cells were centrifuged and washed again with 1 ml of TBS as before, re-suspended in 400 μl of TBS and then taken for FACS analysis. The FACS analysis was performed on Beckton-Dickinson cell sorter, using lysis II software. Excitation was at 488 nm and emission for FITC detection was at 535 nm and for PI detection at 585 nm.

For another assay, the system named is HUVEC cells. As to the kind of experiment: Binding to endothelial HUVEC cells by FACS analysis. It counts as cell-based, Human. The method, then:
Binding detection was done using flow cytometric analysis to populations of HUVEC cells.
HUVEC (CC-2517, obtained from Clonetics, Walkersville, Md.) were grown on tissue culture flasks in Endothelial cell medium (EGM-2 Bulletkit, CC 3162, Clonetics). Mid-confluent cultures were harvested using Trypsine/EDTA solution (CC-5012, Clonetics). The cells were rinsed twice with TBS containing 2% BSA and kept on ice. Samples of 10^6 cells were tested for binding.
Cells were washed in 1 ml of TBS-BSA and centrifuged as before and then suspended in 100 μl of TBS-BSA containing streptavidin conjugated to fluorescein (FITC) for detection of the bound biotinylated compound. […] Thereafter, 400 μl of TBS-BSA were added and cells were entrifuged and re-suspended in 400 μl of TBS and taken for FACS analysis.

Assay [2] has as its system Russell Viper Venom (RVV)-mediated clotting. As to the kind of experiment: RVV coagulation test in normal plasma. It counts as biochemical.
Description: Reactions were started by mixing 100 μl of RVV reagent, and 100 μl of quality control plasma collected from normal individuals (84670-11, Instrumentation Laboratory, Italy). Clotting time was detected by visual inspection following mixing the reaction ingredients in a test tube, until the suspension could no longer be aspirated with a pastuer pipette. Clotting time was measured by two separate researchers.
100 μl of LA screen was then added and clotting time was detected as described.
The control clotting time, when no compound was added to normal plasma was 40 seconds.
The test system of assay [3] is apoptotic HeLa cells. As to the method:
One of the final steps of both intrinsic and extrinsic path-ways of coagulation, is the generation of thrombin from prothrombin. Thrombin is the final protease generated in the sequence of coagulation reaction, and its activity entails conversion of fibrinogen to fibrin, thus forming the clot. Generation of thrombin on the pro-coagulant surface of apoptotic cells was assayed (according to Bombeli T. et al., 1997, Blood 89(7), 2429–2442), by determining its activity, using the chromogenic substrate S-2366 (from Chromogenix, Sweden). Samples of pro-coagulant cells (HeLa cells treated with 500 μM of DA for 18 hours) were used for the assay. Reaction mixture, in a plastic 1 ml cuvette, contained 100 μl of cells (1.5×10^5), 350 μl of HBS (150 mM NaCl, 10 mM Hepes pH 7), and 150 μl of normal control plasma, that was re-calcified with 300 μl of 25 mM CaCl2. The reaction was started by addition of the substrate S-2366 to a final concentration of 0.2 mM, and the kinetics of thrombin activity was determined by optical density at OD405. Data was collected and analyzed by the Swift kinetics software (Pharmacia).

The target of another assay is T1, thrombin (Homo sapiens, UniProt P00734).
T1 construct: purchased
Briefly: Direct effect on thrombin activity in vitro. It counts as biochemical. As to conditions: commercially available thrombin and chromogenic substrate; not shown.

Several values for one entry are separate records, joined by “and”; a condition that tells them apart may be missing. Equal entries are not always repeated. Where two headings read alike, the source gives them in different places.

As for “Myristate-KVSFFCKNKEKKC-K (SEQ ID NO:1) (biotin) [NST513]”, the “binding to apoptotic versus control HeLa cells” value with apoptotic HeLa cells [1] is listed as “strong labeling of apoptotic versus control cells”; with apoptotic HeLa cells [1] (listed as NST313), “specifically binds to apoptotic cells”. The “increase in the percentage of apoptotic cells labeled, as compared to non-apoptotic cells” value with apoptotic HeLa cells [1] (PI and FITC) was 5.5 fold. Further, the “binding to HUVEC cells” value in the assay with HUVEC cells (500 nM) is recorded as “strong binding”. Further, the “cells FITC positive” value with HUVEC cells (500 nM) is “About 70%”. Besides, the “fraction of HUVEC cells labeled” value with HUVEC cells (250 μM) is “about 50%”. Moreover, the EC50 in assay [2] (RVV clotting time, read-out: EC50 (effective dose of 50%)) was 3 to 5 µM. In assay [2] (RVV test, normal plasma, 2.5–20 μM, control 40 seconds), the “prolongation of clotting time (factor)” value was 3.75 and 3.5. The “change of time needed for obtaining 50% of thrombin activity (factor)” value amounted to 1.5 with apoptotic HeLa cells [3] (5 μM) and 2.6 with apoptotic HeLa cells [3] (10 μM). The “thrombin generation by apoptotic cells” value in the assay with apoptotic HeLa cells [3] (10 μM) was “rate of thrombin generation was also inhibited”; in the assay with apoptotic HeLa cells [3] (25 μM) it was “fully block”; with apoptotic HeLa cells [3] (25–50μM) it was “Total blockage of thrombin generation”. Besides, in the assay on apoptotic HeLa cells [3] (5–50 μM), the “thrombin activity (reflecting thrombin generation), dose response” value is listed as “effectively inhibited”. For the same substance, the “direct effect on thrombin activity” value on thrombin is reported as “no direct inhibitory effect on thrombin activity”.

These data come from US7196063B1, “Peptides and pharmaceutical compositions comprising same” (NST NeuroSurvival Technologies Ltd., priority 1999, dated 2007).
